From patent publication US10787452B2 (Vertex Pharmaceuticals Incorporated, priority 2012, dated 2020)

Test system: HCT116 colorectal cancer cells
Test: Cisplatin sensitization assay (96 h cell viability MTS);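 further: compound concentration needed to lower the Cisplatin-alone IC50 by a set fold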
Format: cell-based
Settings: 96 h MTS, compound plus Cisplatin
In short: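 HCT116 cells were co-treated with compound and cisplatin, each in 2-fold serial dilutions from a 10 μM top final concentration, as a full matrix. After 96 h at 37 °C, 5% CO2, viability was read by MTS following a 1 h incubation with reagent.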

| SMILES | Cisplatin Sensitization Assay |
| --- | --- |
| N#CC1CN(C(=O)C2CCN(c3ccncc3NC(=O)c3c(N)nn4cc(F)cnc34)CC2)C1 [I-G-81, 2-amino-N-(4-(4-(3-cyanoazetidine-1-carbonyl)piperidin-1-yl)pyridin-3-yl)-6-fluoropyrazolo[1,5-a]pyrimidine-3-carboxamide] | +++ (Compounds with a Cisplatin sensitization value of <0.02 μM are marked with “+++.”) |
| Nc1nn2cc(F)cnc2c1C(=O)Nc1cnccc1N1CCC(C(=O)N2CC(F)C2)CC1 [I-G-82, 2-amino-6-fluoro-N-(4-(4-(3-fluoroazetidine-1-carbonyl)piperidin-1-yl)pyridin-3-yl)pyrazolo[1,5-a]pyrimidine-3-carboxamide] | +++ (Compounds with a Cisplatin sensitization value of <0.02 μM are marked with “+++.”) |
| Nc1nn2cc(F)cnc2c1C(=O)Nc1cnccc1N1CCC(C(=O)N2CCCC2)CC1 [I-G-83, 2-amino-6-fluoro-N-(4-(4-(pyrrolidine-1-carbonyl)piperidin-1-yl)pyridin-3-yl)pyrazolo[1,5-a]pyrimidine-3-carboxamide] | +++ (Compounds with a Cisplatin sensitization value of <0.02 μM are marked with “+++.”) |
| Nc1nn2cc(F)cnc2c1C(=O)Nc1cnccc1N1CCC(C(=O)N2CCC3(COC3)C2)CC1 [I-G-84, N-(4-(4-(2-oxa-6-azaspiro[3.4]octane-6-carbonyl)piperidin-1-yl)pyridin-3-yl)-2-amino-6-fluoropyrazolo[1,5-a]pyrimidine-3-carboxamide] | +++ (Compounds with a Cisplatin sensitization value of <0.02 μM are marked with “+++.”) |
| Nc1nn2cc(F)cnc2c1C(=O)Nc1cnccc1N1CCC(C(=O)N2CCOCC2)CC1 [I-G-85, 2-amino-6-fluoro-N-(4-(4-(morpholine-4-carbonyl)piperidin-1-yl)pyridin-3-yl)pyrazolo[1,5-a]pyrimidine-3-carboxamide] | +++ (Compounds with a Cisplatin sensitization value of <0.02 μM are marked with “+++.”) |
| CS(=O)(=O)C1CN(C(=O)C2CCN(c3c(F)cncc3NC(=O)c3c(N)nn4cc(F)cnc34)CC2)C1 [I-G-86, 2-amino-6-fluoro-N-(5-fluoro-4-(4-(3-(methylsulfonyl)azetidine-1-carbonyl)piperidin-1-yl)pyridin-3-yl)pyrazolo[1,5-a]pyrimidine-3-carboxamide] | +++ (Compounds with a Cisplatin sensitization value of <0.02 μM are marked with “+++.”) |
| Nc1nn2cc(Cl)cnc2c1C(=O)Nc1cncc(F)c1N1CCC(C(=O)N2CCN3CCC2CC3)CC1 [I-G-87, N-(4-(4-(1,4-diazabicyclo[3.2.2]nonane-4-carbonyl)piperidin-1-yl)-5-fluoropyridin-3-yl)-2-amino-6-chloropyrazolo[1,5-a]pyrimidine-3-carboxamide] | +++ (Compounds with a Cisplatin sensitization value of <0.02 μM are marked with “+++.”) |
| Nc1nn2cc(F)cnc2c1C(=O)Nc1cnccc1N1CCC(C(=O)N2CC3(COC3)C2)CC1 [I-G-88, N-(4-(4-(2-oxa-6-azaspiro[3.3]heptane-6-carbonyl)piperidin-1-yl)pyridin-3-yl)-2-amino-6-fluoropyrazolo[1,5-a]pyrimidine-3-carboxamide] | +++ (Compounds with a Cisplatin sensitization value of <0.02 μM are marked with “+++.”) |
| CS(=O)(=O)C1CN(C(=O)C2CCN(c3ccncc3NC(=O)c3c(N)nn4cc(F)cnc34)CC2)C1 [I-G-89, 2-amino-6-fluoro-N-(4-(4-(3-(methylsulfonyl)azetidine-1-carbonyl)piperidin-1-yl)pyridin-3-yl)pyrazolo[1,5-a]pyrimidine-3-carboxamide] | + (Compounds with a Cisplatin sensitization value >0.2 μM but <5 μM are marked with “+.”) |
| Nc1nn2cc(F)cnc2c1C(=O)Nc1cnccc1N1CCC(C(=O)N2CC3(CCO3)C2)CC1 [I-G-90, N-(4-(4-(1-oxa-6-azaspiro[3.3]heptane-6-carbonyl)piperidin-1-yl)pyridin-3-yl)-2-amino-6-fluoropyrazolo[1,5-a]pyrimidine-3-carboxamide] | +++ (Compounds with a Cisplatin sensitization value of <0.02 μM are marked with “+++.”) |
| CCOC1CN(C(=O)C2CCN(c3ccncc3NC(=O)c3c(N)nn4cc(F)cnc34)CC2)C1 [I-G-91, 2-amino-N-(4-(4-(3-ethoxyazetidine-1-carbonyl)piperidin-1-yl)pyridin-3-yl)-6-fluoropyrazolo[1,5-a]pyrimidine-3-carboxamide] | +++ (Compounds with a Cisplatin sensitization value of <0.02 μM are marked with “+++.”) |
| CC1(N2CCN(C(=O)C3CCN(c4c(F)cncc4NC(=O)c4c(N)nn5cc(F)cnc45)CC3)CC2)COC1 [I-G-92, 2-amino-6-fluoro-N-(5-fluoro-4-(4-(4-(3-methyloxetan-3-yl)piperazine-1-carbonyl)piperidin-1-yl)pyridin-3-yl)pyrazolo[1,5-a]pyrimidine-3-carboxamide] | +++ (Compounds with a Cisplatin sensitization value of <0.02 μM are marked with “+++.”) |
| CO[C@H]1CCN(C(=O)C2CCN(c3ccncc3NC(=O)c3c(N)nn4cc(F)cnc34)CC2)C1 [I-G-94, (S)-2-amino-6-fluoro-N-(4-(4-(3-methoxypyrrolidine-1-carbonyl)piperidin-1-yl)pyridin-3-yl)pyrazolo[1,5-a]pyrimidine-3-carboxamide] | +++ (Compounds with a Cisplatin sensitization value of <0.02 μM are marked with “+++.”) |
| C[N+]1([O-])CCN(C(=O)C2CCN(c3c(F)cncc3NC(=O)c3c(N)nn4cc(F)cnc34)CC2)CC1 [I-G-95, 4-(1-(3-(2-amino-6-fluoropyrazolo[1,5-a]pyrimidine-3-carboxamido)-5-fluoropyridin-4-yl)piperidine-4-carbonyl)-1-methylpiperazine 1-oxide] | +++ (Compounds with a Cisplatin sensitization value of <0.02 μM are marked with “+++.”) |
| CN1CC(N2CCN(C(=O)C3CCN(c4c(F)cncc4NC(=O)c4c(N)nn5cc(F)cnc45)CC3)CC2)C1 [I-G-96, 2-amino-6-fluoro-N-(5-fluoro-4-(4-(4-(1-methylazetidin-3-yl)piperazine-1-carbonyl)piperidin-1-yl)pyridin-3-yl)pyrazolo[1,5-a]pyrimidine-3-carboxamide] | +++ (Compounds with a Cisplatin sensitization value of <0.02 μM are marked with “+++.”) |
| COCC1CN(C(=O)C2CCN(c3c(F)cncc3NC(=O)c3c(N)nn4cc(F)cnc34)CC2)C1 [I-G-98, 2-amino-6-fluoro-N-(5-fluoro-4-(4-(3-(methoxymethyl)azetidine-1-carbonyl)piperidin-1-yl)pyridin-3-yl)pyrazolo[1,5-a]pyrimidine-3-carboxamide] | +++ (Compounds with a Cisplatin sensitization value of <0.02 μM are marked with “+++.”) |
| CO[C@H]1CCN(C(=O)C2CCN(c3c(F)cncc3NC(=O)c3c(N)nn4cc(F)cnc34)CC2)C1 [I-G-99, (S)-2-amino-6-fluoro-N-(5-fluoro-4-(4-(3-methoxypyrrolidine-1-carbonyl)piperidin-1-yl)pyridin-3-yl)pyrazolo[1,5-a]pyrimidine-3-carboxamide] | +++ (Compounds with a Cisplatin sensitization value of <0.02 μM are marked with “+++.”) |
| Nc1nn2cc(F)cnc2c1C(=O)Nc1cnccc1N1CCN(C2COC2)CC1 [I-N-1, 2-amino-6-fluoro-N-(4-(4-(oxetan-3-yl)piperazin-1-yl)pyridin-3-yl)pyrazolo[1,5-a]pyrimidine-3-carboxamide] | ++ (Compounds with a Cisplatin sensitization value >0.02 μM but <0.2 μM are marked with “++.”) |
